Test [1] can be described thus: CIT2-GFP expression modulators in yeast, SAR follow-up, flow cytometry, KU set 2, dose response (AID 504461). The conditions noted are these: S. cerevisiae CIT2-GFP strain, flow cytometry GFP, 3 h.
Test [2] deals with S. cerevisiae CIT2-GFP strain, flow cytometry GFP, 3 h. The description is as above.

What is called EC50 is the midpoint of the concentration-response curve.

Calls of active or inactive are those of the source.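 Rule for the calls: active = compounds whose fitted half-effect concentration on CIT2 GFP level is 33 micromolar or lower; inactive = the rest.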

For the compound `O=[N+]([O-])c1c(NC2CCCCC2)nc(NCc2ccccc2)nc1N1CCOCC1`, the GFP fluorescence (kMESF) in test [1] (at 300 µM (top of the series)) was 4.5 kMESF (inactive).
On to `CNc1nc(N)c([N+](=O)[O-])c(Nc2ccccc2F)n1`, for which, in test [1] (at 100 µM (top of the series)), the GFP fluorescence (kMESF) was 4.24 kMESF (inactive).
On to `Cc1cc(Nc2cc(-c3ccccc3)nc(NCc3ccccc3)n2)n[nH]1`, for which the GFP fluorescence (kMESF) in test [1] (at 300 µM (top of the series)) was 4.23 kMESF (inactive).
In the case of `CCNc1nc(N)c([N+](=O)[O-])c(Nc2cccc(Cl)c2)n1`, in test [2], the EC50 was 73.5 µM (inactive).
With `CNc1nc(N)c(C(=O)c2ccc(C)c(C)c2)c(Nc2cccc(Cl)c2)n1`, the EC50 in test [2] is 129 µM (inactive).
In the case of `CNc1nc(N)c([N+](=O)[O-])c(Nc2cccc(Oc3ccccc3)c2)n1`, the GFP fluorescence (kMESF) in test [1] (at 100 µM (top of the series)) was 3.53 kMESF (inactive).
Regarding `CNc1nc(N)c([N+](=O)[O-])c(Nc2cccc(OC)c2)n1`, in test [1] (at 100 µM (top of the series)), the GFP fluorescence (kMESF) is 5.3 kMESF (inactive).
With `CNc1nc(N)cc(Nc2ccccc2F)n1`, in test [1] (at 300 µM (top of the series)), the GFP fluorescence (kMESF) is 5.53 kMESF (inactive).
For the compound `CNc1nc(NC2CCCCC2)c([N+](=O)[O-])c(N2CCOCC2)n1`, the GFP fluorescence (kMESF) in test [1] (at 100 µM (top of the series)) was 3.39 kMESF (inactive).
In the case of `COc1ccccc1-c1cc(Nc2cc(C)[nH]n2)nc(NCc2ccccc2)n1`, the GFP fluorescence (kMESF) in test [1] (at 300 µM (top of the series)) is 4.5 kMESF (inactive).
As for `CNc1nc(NC)c([N+](=O)[O-])c(Nc2cccc(Cl)c2)n1`, in test [1] (at 100 µM (top of the series)), the GFP fluorescence (kMESF) was 3.32 kMESF (inactive).
On to `CNc1nc(N)cc(Nc2cccc(Cl)c2)n1`, for which the GFP fluorescence (kMESF) in test [1] (at 300 µM (top of the series)) is 4.78 kMESF (inactive).
Consider `CNc1nc(N)c([N+](=O)[O-])c(Nc2ccccc2Br)n1`, for which the GFP fluorescence (kMESF) in test [1] (at 100 µM (top of the series)) was 3.6 kMESF (inactive).
Same read-out and setting: with `CCNc1nc(NC2CCCCC2)c([N+](=O)[O-])c(N2CCOCC2)n1` the figure was 3.39 kMESF (inactive).
With `COc1cccc(-c2cc(Nc3cc(C)[nH]n3)nc(NCc3ccccc3)n2)c1`, in test [1] (at 300 µM (top of the series)), the GFP fluorescence (kMESF) is 4.64 kMESF (inactive).
Take `CNc1nc(N)cc(Oc2cccc(Cl)c2)n1`: the GFP fluorescence (kMESF) in test [1] (at 300 µM (top of the series)) was 3.55 kMESF (inactive).
Take `Cc1cc(Nc2cc(Nc3ccccc3)nc(NCc3ccccc3)n2)n[nH]1`: the GFP fluorescence (kMESF) in test [1] (at 300 µM (top of the series)) was 4.57 kMESF (inactive).
The same measure, in the same setting: the figure for `CCOC(=O)c1c(N)nc(NC)nc1Nc1cccc(F)c1` is 5.12 kMESF (inactive).
As to `COC(=O)c1cccc(-c2cc(Nc3cc(C)[nH]n3)nc(NCc3ccccc3)n2)c1`, in test [1] (at 300 µM (top of the series)), the GFP fluorescence (kMESF) was 4.85 kMESF (inactive).
Consider `CNc1nc(N)c([N+](=O)[O-])c(Nc2cccc(Br)c2)n1`, for which the GFP fluorescence (kMESF) in test [1] (at 100 µM (top of the series)) is 5.3 kMESF (inactive).
